Results from ChEMBL document CHEMBL1201862, “PubChem BioAssay data set” (2004).
The source made the active and inactive calls.

Assays:
[1] = tested on: INS1; assay: beta cell apoptosis inhibitors, cytokine rescue, dose response, luminescence, retest (AID 449756); assay type: functional, cell-based; details: Rattus norvegicus;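 note: cell death triggered by IL-1 beta plus TNF-alpha plus IFN-gamma mixture; protective hits raise ATP signal compared with cytokine alone wells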
[2] = Shn3 3'UTR reporter inhibitors, dose response, cell-based, Clone20 osteoblasts, firefly luciferase, cherry-picked (AID 624132); assay type: functional;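 note: firefly luciferase luminescence from reporter carrying the Shn3 3'UTR in osteoblasts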
[3] = control 3'UTR Renilla luciferase suppression, dose response, counter-screen for Shn3 inhibitor project, cell-based, Clone20-Shn3RL, cherry-picked (AID 624133); assay type: functional
[4] = target: G-protein coupled receptor 55 (Homo sapiens, UniProt Q9Y2T6); assay: GPR55 agonists via beta-arrestin recruitment, primary screen, imaging, U2OS cells, beta-arrestin-GFP redistribution (AID 1961); assay type: functional
[5] = HepG2 cell cytotoxicity, dose response, cytotoxicity control for Shn3 inhibitor project, CellTiter-Glo, cherry-picked (AID 624134); assay type: functional, cell-based
[6] = target: CAAX prenyl protease 1 (Saccharomyces cerevisiae S288c, UniProt P47154); assay: Ste24 protease inhibitors, dose response, biochemical, S. cerevisiae, plate reader, cherry-pick (AID 488815)
[7] = target: T1, CAAX prenyl protease 2 (Saccharomyces cerevisiae S288c, UniProt Q03530); assay type: biochemical
T1 sequence (Q03530 whole entry): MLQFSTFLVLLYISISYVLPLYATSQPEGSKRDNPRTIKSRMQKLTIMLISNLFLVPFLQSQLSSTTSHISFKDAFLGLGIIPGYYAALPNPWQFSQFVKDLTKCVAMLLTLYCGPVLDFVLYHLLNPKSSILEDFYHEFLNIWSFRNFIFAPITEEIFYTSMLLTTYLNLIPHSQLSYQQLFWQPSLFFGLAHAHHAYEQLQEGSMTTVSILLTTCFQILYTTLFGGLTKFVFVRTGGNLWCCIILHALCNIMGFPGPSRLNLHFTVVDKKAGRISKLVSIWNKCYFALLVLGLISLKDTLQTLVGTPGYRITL

[8] = target: Dual specificity protein kinase CLK1 (Homo sapiens, UniProt P49759); assay: CLK1 kinase inhibitors, off-target check, dose response, selectivity assay for Dyrk1A inhibitor project, biochemical, cherry-picked samples (AID 588811)
[9] = target: Cyclin-dependent kinase 2 (Homo sapiens, UniProt P24941); assay: CDK2 kinase inhibitors, off-target check, dose response, selectivity assay for Dyrk1A inhibitor project, biochemical, cherry-picked samples (AID 602127)
[10] = tested on: INS1; assay: protection from cytokine-driven beta-cell apoptosis, dose response, JC-1 fluorescence, INS-1E, dry powder, set 2 (AID 488867); assay type: functional, cell-based; details: Rattus norvegicus
[11] = tested on: INS1; assay: protection from cytokine-induced mitochondrial depolarization, dose response, cell-based, INS-1E, JC-1 fluorescence ratio, dry powder (AID 488931); assay type: functional; details: Rattus norvegicus
[12] = target: Dual specificity protein phosphatase 3 (Homo sapiens, UniProt P51452); assay: SAR VHR1 Fluorescent Assay for In Vitro dose response studies Set 3. [Related pubchem assays (depositor defined):AID1654, AID1661, AID1878]; assay type: functional
[13] = target: T2, Microphthalmia-associated transcription factor (Homo sapiens, UniProt O75030); assay: TRPM1 promoter luciferase signal decrease, dose response, MITF inhibitor project, cell-based, SK-MEL-5, cherry-picked, set 3 (AID 493073); assay type: functional
T2 sequence (O75030 whole entry): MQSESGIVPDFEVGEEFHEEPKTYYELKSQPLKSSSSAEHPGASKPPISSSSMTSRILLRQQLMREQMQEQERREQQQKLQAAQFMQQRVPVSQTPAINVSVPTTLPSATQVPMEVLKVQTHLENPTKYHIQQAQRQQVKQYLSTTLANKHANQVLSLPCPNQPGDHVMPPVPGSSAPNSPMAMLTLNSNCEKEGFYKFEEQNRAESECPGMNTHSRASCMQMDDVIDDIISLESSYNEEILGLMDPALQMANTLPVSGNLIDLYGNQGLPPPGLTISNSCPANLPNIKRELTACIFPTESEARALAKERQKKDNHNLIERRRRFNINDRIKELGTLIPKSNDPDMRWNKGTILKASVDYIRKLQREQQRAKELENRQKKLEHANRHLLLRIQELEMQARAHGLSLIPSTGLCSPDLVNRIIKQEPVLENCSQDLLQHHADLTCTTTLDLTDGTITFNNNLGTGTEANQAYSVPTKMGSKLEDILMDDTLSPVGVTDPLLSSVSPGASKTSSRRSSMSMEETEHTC

[14] = tested on: A-375; assay: MITF: Counter assay: A375 proliferation Measured in Cell-Based System Using Plate Reader - 2084-03_Inhibitor_Dose_DryPowder_Activity. [Related pubchem assays (depositor defined):AID488944]; assay type: functional; details: Homo sapiens
[15] = NIH-3T3 fibroblast cytotoxicity, dose response, cytotoxicity control, cell-based, fluorescence, Alamar Blue, secondary assay (AID 2327); assay type: functional;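 note: NIH-3T3 mouse fibroblasts cultured with fluconazole at 8 µg/mL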
[16] = cells; assay type: functional, cell-based
[17] = cytotoxicity toward NIH3T3 fibroblasts, dose response, counter-screen, cell-based, ATP luminescence, mouse fibroblasts (AID 2010); assay type: functional;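 note: cells exposed to compound for about 90 hours before reading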
[18] = inhibitors of intracellular T. cruzi replication, confirmation, NIH3T3 host cells, beta-gal luminescence (AID 2044); assay type: functional, cell-based;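 note: intracellular parasites grown in NIH/3T3 mouse fibroblasts as host cells; luminescent beta-galactosidase reporter signal from transgenic T. cruzi replicating inside host cells; inhibitors lower the luminescence signal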
[19] = cells; assay type: functional, cell-based; remark: listed apart in the source
[20] = C. albicans growth with fluconazole, confirmation, fluorescence, retest (AID 2467); assay type: functional, cell-based

G-protein coupled receptor 55, sequence (Q9Y2T6 whole entry): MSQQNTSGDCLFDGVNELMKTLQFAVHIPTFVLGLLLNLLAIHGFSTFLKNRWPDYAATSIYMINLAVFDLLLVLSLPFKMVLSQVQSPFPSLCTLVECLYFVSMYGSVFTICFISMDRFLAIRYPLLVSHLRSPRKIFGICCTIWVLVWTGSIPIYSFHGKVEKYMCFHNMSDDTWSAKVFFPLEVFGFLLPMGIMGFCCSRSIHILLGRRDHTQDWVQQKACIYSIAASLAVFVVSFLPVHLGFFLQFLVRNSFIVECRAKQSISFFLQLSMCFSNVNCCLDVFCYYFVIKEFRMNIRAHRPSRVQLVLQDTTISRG
CAAX prenyl protease 1, sequence (P47154 whole entry): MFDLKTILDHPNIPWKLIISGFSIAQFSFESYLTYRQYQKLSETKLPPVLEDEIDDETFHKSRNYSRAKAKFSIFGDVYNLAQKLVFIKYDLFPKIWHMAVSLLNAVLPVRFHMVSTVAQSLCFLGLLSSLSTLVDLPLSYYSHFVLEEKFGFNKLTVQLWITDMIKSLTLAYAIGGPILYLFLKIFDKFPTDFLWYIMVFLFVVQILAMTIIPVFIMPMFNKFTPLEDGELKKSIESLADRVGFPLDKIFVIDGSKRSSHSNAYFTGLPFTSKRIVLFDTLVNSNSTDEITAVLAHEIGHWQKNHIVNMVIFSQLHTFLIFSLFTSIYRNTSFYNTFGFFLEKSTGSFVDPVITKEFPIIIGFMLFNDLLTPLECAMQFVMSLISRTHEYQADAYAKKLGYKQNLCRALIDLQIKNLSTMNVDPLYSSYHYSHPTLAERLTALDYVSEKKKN
Dual specificity protein kinase CLK1, sequence (P49759 whole entry): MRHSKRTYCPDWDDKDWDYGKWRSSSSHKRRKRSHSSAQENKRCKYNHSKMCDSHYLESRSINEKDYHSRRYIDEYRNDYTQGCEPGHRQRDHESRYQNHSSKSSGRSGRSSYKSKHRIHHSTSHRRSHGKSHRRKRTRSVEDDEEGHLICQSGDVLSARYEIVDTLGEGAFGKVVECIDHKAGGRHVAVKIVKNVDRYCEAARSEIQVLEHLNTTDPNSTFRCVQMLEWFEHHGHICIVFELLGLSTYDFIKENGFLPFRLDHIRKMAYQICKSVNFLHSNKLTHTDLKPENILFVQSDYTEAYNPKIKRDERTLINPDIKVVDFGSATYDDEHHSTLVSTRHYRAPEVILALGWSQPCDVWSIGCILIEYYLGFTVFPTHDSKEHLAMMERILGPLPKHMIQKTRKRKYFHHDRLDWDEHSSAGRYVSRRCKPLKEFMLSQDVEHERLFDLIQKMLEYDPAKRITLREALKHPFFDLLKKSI
Dual specificity protein phosphatase 3, sequence (P51452 whole entry): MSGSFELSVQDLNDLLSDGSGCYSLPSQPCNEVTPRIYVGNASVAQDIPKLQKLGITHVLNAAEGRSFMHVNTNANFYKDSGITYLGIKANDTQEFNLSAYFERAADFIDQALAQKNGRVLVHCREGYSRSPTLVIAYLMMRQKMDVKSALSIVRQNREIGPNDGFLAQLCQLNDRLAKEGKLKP

## COc1ccc(C2/C=C\CN(C(=O)c3ccc(C)cc3)[C@H](Cc3ccccc3)C(=O)N2Cc2ccc(F)cc2)cc1 (some centres undefined)
[1]
  AC50: 7.14 µM (active)
[2]
  AC50: 0.772 µM (active)
[3]
  AC50: 18.1 µM (active)
[4]
  EC50: > 32 µM (inactive)
[5]
  AC50: > 70 µM (inactive)
[6]
  AC50: 37.3 µM (active)
[7]
  AC50: 35.1 µM (active)

## Cc1ccc(CN(C)c2ncnc3ccc(-c4ccc5c(c4)OCO5)cc23)o1
[8]
  AC50: < 0.00195 µM (active)
[9]
  AC50: 11.3 µM (active)

## C[C@@H]1CN([C@@H](C)CO)C(=O)c2cccc(NC(=O)Nc3cccc4ccccc34)c2O[C@H]1CN(C)S(=O)(=O)c1ccc2c(n1)N(C)CCO2
[10]
  AC50: 69.4 µM (active)
[11]
  AC50: 61.1 µM (active)

## COc1cccc2sc(NC(=O)c3cccc(C(F)(F)F)c3)nc12
[12]
  IC50: > 66 µM (inactive)

## COc1cnc(-c2ccccn2)nc1NC(C)C
[1]
  AC50: 7.93 µM (active)
[13]
  AC50: 12.4 µM (active)
[14]
  AC50: 37.1 µM (active)
[15]
  EC50: 23.1 µM (active)
[2]
  AC50: 2.81 µM (active)
[16]
  EC50: > 350 µM (not active)
[3]
  AC50: 3.16 µM (active)
[17]
  EC50: 3.77 µM (active)
[18]
  EC50: 2.05 µM (active)
[5]
  AC50: 5.96 µM (active)
[19]
  EC50: 19.7 µM (active)
[20]
  EC50: > 38 µM (not active)
